Patent US4366160A, “Imidazole derivatives” (Hoffmann-La Roche Inc., priority 1980, dated 1982)

tested on: Spontaneously hypertensive rat; assay: Cardiovascular activities: systolic blood pressure and heart rate in conscious spontaneously hypertensive rats (p.o.); format: in vivo; conditions: 1.0 mg/kg (p.o.), maximum variation from control
Procedure: The cardiovascular activities can be determined according to the following method:
The systolic blood pressure and the heart rate are measured several times on conscious, spontaneously hypertensive female rats before the administration of the subtance. Per dosage there are used 5 experimental animals with a body weight of about 300 g. The administration of substance is carried out by means of a stomach probe. Both parameters are measured 1, 3, 6 and 16 hours after the administration and the percentage variation from the control values is calculated. The systolic blood pressure is measured indirectly at the tail artery of the rate according to the method of Gerold et al. (Helv. Physiol. Acta 24, 58-69 (1966); Arzneimittelforschung 18, 1285-1287 (1968).
(§1) In the Table which follows, the results obtained with compounds A to H are compiled. The maximum percentage variations from the control values are given.

How did the “Blood pressure, Δ%” value turn out when `Cc1ccc(CON2CCNC2=Nc2c(Cl)cccc2Cl)[n+]([O-])c1` [F, 2-([{2-[(2,6-Dichlorophenyl)imino]-1-imidazolidinyl}oxy]methyl)-5-methylpyridin 1-oxide] was run?
The value was -9.6%.

And the “Heart rate, Δ%” value?
The value was -4.9%.

same assay, conditions: 3.0 mg/kg (p.o.), maximum variation from control

`CC(ON1CCNC1=Nc1c(Cl)cccc1Cl)c1cc[n+]([O-])cc1` (centres unmarked) [E, 4-(1-[{2-[(2,6-Dichlorophenyl)imino]-1-imidazolidinyl}oxy]ethyl)pyridine1-oxide] was tested. Which “Blood pressure, Δ%” value did it give?
Its value is “+10.2%”.

And the “Heart rate, Δ%” value?
The value was “+4.0%”.

Which “Blood pressure, Δ%” value does the source give for `Cc1ccc(CON2CCNC2=Nc2c(Cl)cccc2Cl)[n+]([O-])c1` [F, 2-([{2-[(2,6-Dichlorophenyl)imino]-1-imidazolidinyl}oxy]methyl)-5-methylpyridin 1-oxide] here?
The value was -10.4%.

What about the “Heart rate, Δ%” value of the same compound?
The value was -5.5%.

same assay, conditions: 10.0 mg/kg (p.o.), maximum variation from control

How did the “Blood pressure, Δ%” value turn out when `CC(ON1CCNC1=Nc1c(Cl)cccc1Cl)c1cc[n+]([O-])cc1` (centres unmarked) [E, 4-(1-[{2-[(2,6-Dichlorophenyl)imino]-1-imidazolidinyl}oxy]ethyl)pyridine1-oxide] was run?
Its value is -13.9%.

What about the “Heart rate, Δ%” value of the same compound?
Its value is -13.2%.

`Cc1cccc(CON2CCNC2=Nc2c(Cl)cccc2Cl)[n+]1[O-]` [G, 2-([{2-[(2,6-Dichlorophenyl)imino]-1-imidazolidinyl}oxy]methyl)-6-methylpyridin 1-oxide] was tested. Which “Blood pressure, Δ%” value did it give?
Its value is -12.0%.

And the “Heart rate, Δ%” value?
Its value is -22.6%.

same assay, conditions: 30.0 mg/kg (p.o.), maximum variation from control

Which “Blood pressure, Δ%” value does the source give for `CC(ON1CCNC1=Nc1c(Cl)cccc1Cl)c1cc[n+]([O-])cc1` (centres unmarked) [E, 4-(1-[{2-[(2,6-Dichlorophenyl)imino]-1-imidazolidinyl}oxy]ethyl)pyridine1-oxide] here?
The value was “+2.4%”.

What about the “Heart rate, Δ%” value of the same compound?
Its value is -9.9%.

tested on: writhing (mouse); assay: Writhing test (mouse), 60 minutes after peroral administration; format: in vivo; conditions: po, 1 h, orally, 60 minutes after administration, 50% of animals show no more than one writhing
Procedure: In carrying out the experiment there are used in each case 8 male mice (20-22 g) per dosage. 60 minutes after the oral administration of the test substance 10 ml/kg of the test solution is administered to the animals by intraperitoneal injection. After a latent period of 5 minutes, the number of animals in which during 5 minutes no more than one characteristic writhing symptom, that is, convulsive stretching movement of the body, occurs is registered. The ED 50 indicates the oral dosage in mg/kg at which 50% of the animals show no more than one writhing.
60 minutes after peroral administration

With `CC(ON1CCNC1=Nc1c(Cl)cccc1Cl)c1cc[n+]([O-])cc1` (centres unmarked) [E, 4-(1-[{2-[(2,6-Dichlorophenyl)imino]-1-imidazolidinyl}oxy]ethyl)pyridine1-oxide] as the compound, how does the ED50 read?
Its ED50 is 7.3 mg/kg.

`Cc1ccc(CON2CCNC2=Nc2c(Cl)cccc2Cl)[n+]([O-])c1` [F, 2-([{2-[(2,6-Dichlorophenyl)imino]-1-imidazolidinyl}oxy]methyl)-5-methylpyridin 1-oxide] was tested. Which ED50 did it give?
The ED50 was 27 mg/kg.

For `Cc1cccc(CON2CCNC2=Nc2c(Cl)cccc2Cl)[n+]1[O-]` [G, 2-([{2-[(2,6-Dichlorophenyl)imino]-1-imidazolidinyl}oxy]methyl)-6-methylpyridin 1-oxide], which ED50 is on record?
Its ED50 is 16 mg/kg.

For `[O-][n+]1ccc(O)cc1CON1CCNC1=Nc1c(Cl)cccc1Cl` [H, 2-([{2-[(2,6-Dichlorophenyl)imino]-1-imidazolidinyl}oxy]methyl)-4-pyridinol 1-oxide], which ED50 is on record?
The ED50 was 8.7 mg/kg.

tested on: sympathetic nervous system; assay: Central sympathetic-inhibitory activity (cats in urethane narcosis); format: in vivo; conditions: anaesthetized cat, i.v.; positive if sympathetic activity inhibited >30% for >30 minutes in blood pressure-lowering dosages
Description: The central sympathetic-inhibitory activity can be determined according to the following method:
(§2) The action of the test compounds on the activity in the sympathetic nervous system is investigated on cats in urethane narcosis. The preganglionic sympathetic activity is derived by means of biopolar platinum electrodes from the splanchnic nerve and the postganglionic sympathetic activity is derived from a nerve branch to the kidney according to the method of G. Hausler [Naunyn-Schmiedeberg's Arch. Pharmacol. 286, 97-111 (1974)]. Moreover, there is measured the arterial blood pressure from the femoral artery as well as the heart rate. The test substance is injected intravenously. When a test substance in blood pressure-lowering dosages inhibits the sympathetic activity during more than 30 minutes by more than 30%, then it is qualified as having "central sympathetic-inhibitory activity".

For `CC(ON1CCNC1=Nc1c(Cl)cccc1Cl)c1cc[n+]([O-])cc1` (centres unmarked) [E, 4-(1-[{2-[(2,6-Dichlorophenyl)imino]-1-imidazolidinyl}oxy]ethyl)pyridine1-oxide], which Central sympathetic-inhibitory activity is on record?
The Central sympathetic-inhibitory activity was “none”.

`Cc1ccc(CON2CCNC2=Nc2c(Cl)cccc2Cl)[n+]([O-])c1` [F, 2-([{2-[(2,6-Dichlorophenyl)imino]-1-imidazolidinyl}oxy]methyl)-5-methylpyridin 1-oxide] was tested. Which Central sympathetic-inhibitory activity did it give?
Its Central sympathetic-inhibitory activity is “none”.

`Cc1cccc(CON2CCNC2=Nc2c(Cl)cccc2Cl)[n+]1[O-]` [G, 2-([{2-[(2,6-Dichlorophenyl)imino]-1-imidazolidinyl}oxy]methyl)-6-methylpyridin 1-oxide] was tested. Which Central sympathetic-inhibitory activity did it give?
The Central sympathetic-inhibitory activity was “none”.

With `[O-][n+]1ccc(O)cc1CON1CCNC1=Nc1c(Cl)cccc1Cl` [H, 2-([{2-[(2,6-Dichlorophenyl)imino]-1-imidazolidinyl}oxy]methyl)-4-pyridinol 1-oxide] as the compound, how does the Central sympathetic-inhibitory activity read?
Its Central sympathetic-inhibitory activity is “none”.

tested on: Anaesthetized cat; assay: Blood pressure and heart rate in the anaesthetized cat (i.v.); format: in vivo; conditions: 1.0 mg/kg (i.v.), maximum variation from control
Procedure: as §2, §1

Which “Blood pressure, Δ%” value does the source give for `CC(ON1CCNC1=Nc1c(Cl)cccc1Cl)c1cc[n+]([O-])cc1` (centres unmarked) [E, 4-(1-[{2-[(2,6-Dichlorophenyl)imino]-1-imidazolidinyl}oxy]ethyl)pyridine1-oxide] here?
The value was 0%.

And the “Heart rate, Δ%” value?
Its value is 0%.

Which results are given for `Cc1ccc(CON2CCNC2=Nc2c(Cl)cccc2Cl)[n+]([O-])c1` [F, 2-([{2-[(2,6-Dichlorophenyl)imino]-1-imidazolidinyl}oxy]methyl)-5-methylpyridin 1-oxide]?
Blood pressure, Δ%: 0%; Heart rate, Δ%: 0%

`Cc1cccc(CON2CCNC2=Nc2c(Cl)cccc2Cl)[n+]1[O-]` [G, 2-([{2-[(2,6-Dichlorophenyl)imino]-1-imidazolidinyl}oxy]methyl)-6-methylpyridin 1-oxide] was tested. Which “Blood pressure, Δ%” value did it give?
The value was -4%.

And the “Heart rate, Δ%” value?
Its value is 0%.

How did the “Blood pressure, Δ%” value turn out when `[O-][n+]1ccc(O)cc1CON1CCNC1=Nc1c(Cl)cccc1Cl` [H, 2-([{2-[(2,6-Dichlorophenyl)imino]-1-imidazolidinyl}oxy]methyl)-4-pyridinol 1-oxide] was run?
Its value is -12%.

What about the “Heart rate, Δ%” value of the same compound?
Its value is 0%.

same assay, conditions: 3.0 mg/kg (i.v.), (10'), maximum variation from control

Which “Blood pressure, Δ%” value does the source give for `[O-][n+]1ccc(O)cc1CON1CCNC1=Nc1c(Cl)cccc1Cl` [H, 2-([{2-[(2,6-Dichlorophenyl)imino]-1-imidazolidinyl}oxy]methyl)-4-pyridinol 1-oxide] here?
Its value is -27%.

same assay, conditions: 3.0 mg/kg (i.v.), maximum variation from control

For `CC(ON1CCNC1=Nc1c(Cl)cccc1Cl)c1cc[n+]([O-])cc1` (centres unmarked) [E, 4-(1-[{2-[(2,6-Dichlorophenyl)imino]-1-imidazolidinyl}oxy]ethyl)pyridine1-oxide], which “Blood pressure, Δ%” value is on record?
Its value is -4%.

What about the “Heart rate, Δ%” value of the same compound?
The value was 0%.

How did the “Blood pressure, Δ%” value turn out when `Cc1ccc(CON2CCNC2=Nc2c(Cl)cccc2Cl)[n+]([O-])c1` [F, 2-([{2-[(2,6-Dichlorophenyl)imino]-1-imidazolidinyl}oxy]methyl)-5-methylpyridin 1-oxide] was run?
The value was 0%.

What about the “Heart rate, Δ%” value of the same compound?
Its value is 0%.

What does the source list for `Cc1cccc(CON2CCNC2=Nc2c(Cl)cccc2Cl)[n+]1[O-]` [G, 2-([{2-[(2,6-Dichlorophenyl)imino]-1-imidazolidinyl}oxy]methyl)-6-methylpyridin 1-oxide]?
Blood pressure, Δ%: -4%; Heart rate, Δ%: -4%

How did the “Heart rate, Δ%” value turn out when `[O-][n+]1ccc(O)cc1CON1CCNC1=Nc1c(Cl)cccc1Cl` [H, 2-([{2-[(2,6-Dichlorophenyl)imino]-1-imidazolidinyl}oxy]methyl)-4-pyridinol 1-oxide] was run?
The value was -2%.

same assay, conditions: 10.0 mg/kg (i.v.), (10'), maximum variation from control

What does the source list for `[O-][n+]1ccc(O)cc1CON1CCNC1=Nc1c(Cl)cccc1Cl` [H, 2-([{2-[(2,6-Dichlorophenyl)imino]-1-imidazolidinyl}oxy]methyl)-4-pyridinol 1-oxide]?
Blood pressure, Δ%: -62%; Heart rate, Δ%: -18%

same assay, conditions: 10.0 mg/kg (i.v.), maximum variation from control

With `CC(ON1CCNC1=Nc1c(Cl)cccc1Cl)c1cc[n+]([O-])cc1` (centres unmarked) [E, 4-(1-[{2-[(2,6-Dichlorophenyl)imino]-1-imidazolidinyl}oxy]ethyl)pyridine1-oxide] as the compound, how does the “Blood pressure, Δ%” value read?
The value was -12%.

And the “Heart rate, Δ%” value?
Its value is -14%.

What does the source list for `Cc1ccc(CON2CCNC2=Nc2c(Cl)cccc2Cl)[n+]([O-])c1` [F, 2-([{2-[(2,6-Dichlorophenyl)imino]-1-imidazolidinyl}oxy]methyl)-5-methylpyridin 1-oxide]?
Blood pressure, Δ%: 0%; Heart rate, Δ%: -10%

Which results are given for `Cc1cccc(CON2CCNC2=Nc2c(Cl)cccc2Cl)[n+]1[O-]` [G, 2-([{2-[(2,6-Dichlorophenyl)imino]-1-imidazolidinyl}oxy]methyl)-6-methylpyridin 1-oxide]?
Blood pressure, Δ%: -15%; Heart rate, Δ%: -13%
